Reference: US12643871B2, “Aryl formamide compound containing chiral sulfur oxide or salt thereof, preparation method, herbicidal composition and use thereof” (Qingdao Kingagroot Chemical Compound Co., Ltd., priority 2019, dated 2026)

Experiments:
Assay type in all cases: in vivo
[1] = tested on: Digitaria sanguinalis; assay: Comparison experiment (post-emergence) against racemate / S configuration; conditions: Digitaria sanguinalis, post-emergence, Table 6, post-seedling test conditions
Excerpt: (§1) The above growth control rates are fresh weight control rates.
(§2) Experiment on weeding effect in post-emergence stage: monocotyledonous and dicotyledonous weed seeds (Descurainia sophia, Capsella bursa-pastoris, Galium aparine, Stellaria media, Lithospermum arvense, Rorippa indica, Alopecurus aequalis, Beckmannia syzigachne, Sclerochloa dura, Phleum paniculatum, Bromus japonicus, Aegilops tauschii, Phalaris arundinacea, Amaranthus retroflexus, Chenopodiaceae, Commelina communis, Sonchus arvensis, convolvulus arvensis, Cirsium setosum, Solanum nigrum, Acalypha australis, Digitaria sanguinalis, Echinochloa crusgalli, Setaria viridis, Setaria glauca, Leptochloa chinensis, Monochoria vaginalis, Sagittaria trifolia, Scirpus juncoides, Cyperus rotundus, Cyperus iria, Cyperus difformis, Fimbristylis, Portulaca oleracea, Xanthium sibiricum, Pharbitis nil) and major crop seeds (wheat, corn, rice, soybean, cotton, oilseed rape, millet, sorghum, potato, sesame, ricinus) were placed in plastic pots filled with soil, then covered with 0.5-2 cm of soil, allowed to grow in a good greenhouse environment. After 2 weeks of sowing, the test plants were treated in the 2 leaf stage. The tested compounds of the present invention were respectively dissolved in acetone, then added with Tween 80 and 1.5 liter/ha of emulsifiable concentrate of methyl oleate as synergist, diluted with a certain amount of water to obtain a solution with a certain concentration, and sprayed with a spray tower onto the plants. After the application, the plants were cultured for 15 days in the greenhouse, and then the experimental results of the weeding were counted. The doses of the used compounds were 500, 250, 125, 60, 30, 15 g/ha, and the averages were obtained by repeating for three times.
(§3) If there is no clear marker, the post-seedling test conditions are the same as above, and the experimental results are shown in Tables 4-7.

[2] = tested on: Alopecurus japonicas; assay: as above; conditions: Table 6, post-seedling test conditions
Excerpt: as §1, §2, §3

[3] = tested on: Galium aparine; assay: Comparison experiment (post-emergence, Table 7); conditions: Galium aparine (5 branches)
Excerpt: as §3

[4] = tested on: Malachium aquaticum; assay: Comparison experiment (post-emergence, Table 7); conditions: Malachium aquaticum (2 branches)
Excerpt: as §3

[5] = tested on: Sinapis arvensis; assay: Comparison experiment (post-emergence, Table 7); conditions: Sinapis arvensis (3.5 leaf)
Excerpt: as §3

[6] = tested on: Amaranthus retroflexus; assay: Comparison experiment (post-emergence, Table 7); conditions: Amaranthus retroflexus (6 leaf)
Excerpt: as §3

[7] = tested on: Capsella bursa-pastoris; assay: Comparison experiment (post-emergence, Table 7); conditions: Capsella bursa-pastoris (10-11 leaf)
Excerpt: as §3

[8] = tested on: Veronica didyma; assay: Comparison experiment (post-emergence, Table 7); conditions: Veronica didyma (2 branches)
Excerpt: as §3

[9] = tested on: Descurainia sophia; assay: Comparison experiment (post-emergence, Table 7); conditions: Descurainia sophia (12 leaf)
Excerpt: as §3

[10] = tested on: Echinochloa crusgali; assay: Comparison experiment (post-emergence, Table 7); conditions: Echinochloa crusgali (3 leaf)
Excerpt: as §3

[11] = tested on: Green Setaria viridis; assay: Comparison experiment (post-emergence) against racemate / S configuration; conditions: for Results of comparison experiment (16DAA), weed control: Setaria viridis (4 leaf)
[12] = tested on: Leptochloa chinensis; assay: as above; conditions: Leptochloa chinensis (4.5 leaf), 16DAA
[13] = tested on: Abutilon theophrasti; assay: as above; conditions: Abutilon theophrasti (3.5 leaf), 16DAA
[14] = tested on: Digitaria sanguinalis; assay: as above; conditions: Digitaria sanguinalis (3.5 leaf), 16DAA
[15] = tested on: Corn-Zhengdan 958; assay: Comparison experiment (post-emergence, Table 7), crop safety on corn; conditions: Corn-Zhengdan 958 (3.5 leaf)
Excerpt: as §3

## CC[S@@+]([O-])c1c(C(F)(F)F)ccc(C(=O)Nc2nnc(C)o2)c1SC [Compound 548]
[1]
  pest or weed control at 30 g/ha: 100%
[2]
  Results of comparison experiment, Alopecurus japonicas (120 g/ha): 50%
[3]; 3 g/ha
  Results of comparison experiment (16DAA), weed control: 10%
[3]; 6 g/ha
  Results of comparison experiment (16DAA), weed control: 10%
[3]; 12 g/ha
  Results of comparison experiment (16DAA), weed control: 20%
[3]; 24 g/ha
  Results of comparison experiment (16DAA), weed control: 20%
[3]; 48 g/ha
  Results of comparison experiment (16DAA), weed control: 30%
[4]; 3 g/ha
  Results of comparison experiment (16DAA), weed control: 30%
[4]; 6 g/ha
  Results of comparison experiment (16DAA), weed control: 50%
[4]; 12 g/ha
  Results of comparison experiment (16DAA), weed control: 70%
[4]; 24 g/ha
  Results of comparison experiment (16DAA), weed control: 100%
[4]; 48 g/ha
  Results of comparison experiment (16DAA), weed control: 100%
[5]; 3 g/ha
  Results of comparison experiment (16DAA), weed control: 30%
[5]; 6 g/ha
  Results of comparison experiment (16DAA), weed control: 40%
[5]; 12 g/ha
  Results of comparison experiment (16DAA), weed control: 50%
[5]; 24 g/ha
  Results of comparison experiment (16DAA), weed control: 60%
[5]; 48 g/ha
  Results of comparison experiment (16DAA), weed control: 80%
[6]; 3 g/ha
  Results of comparison experiment (16DAA), weed control: 30%
[6]; 6 g/ha
  Results of comparison experiment (16DAA), weed control: 40%
[6]; 12 g/ha
  Results of comparison experiment (16DAA), weed control: 60%
[6]; 24 g/ha
  Results of comparison experiment (16DAA), weed control: 80%
[6]; 48 g/ha
  Results of comparison experiment (16DAA), weed control: 100%
[7]; 3 g/ha
  Results of comparison experiment (16DAA), weed control: 10%
[7]; 6 g/ha
  Results of comparison experiment (16DAA), weed control: 30%
[7]; 12 g/ha
  Results of comparison experiment (16DAA), weed control: 50%
[7]; 24 g/ha
  Results of comparison experiment (16DAA), weed control: 70%
[7]; 48 g/ha
  Results of comparison experiment (16DAA), weed control: 100%
[8]; 3 g/ha
  Results of comparison experiment (16DAA), weed control: 10%
[8]; 6 g/ha
  Results of comparison experiment (16DAA), weed control: 20%
[8]; 12 g/ha
  Results of comparison experiment (16DAA), weed control: 20%
[8]; 24 g/ha
  Results of comparison experiment (16DAA), weed control: 50%
[8]; 48 g/ha
  Results of comparison experiment (16DAA), weed control: 70%
[9]; 3 g/ha
  Results of comparison experiment (16DAA), weed control: 50%
[9]; 6 g/ha
  Results of comparison experiment (16DAA), weed control: 70%
[9]; 12 g/ha
  Results of comparison experiment (16DAA), weed control: 80%
[9]; 24 g/ha
  Results of comparison experiment (16DAA), weed control: 100%
[9]; 48 g/ha
  Results of comparison experiment (16DAA), weed control: 100%
[10]; 3 g/ha
  Results of comparison experiment (16DAA), weed control: 50%
[10]; 6 g/ha
  Results of comparison experiment (16DAA), weed control: 50%
[10]; 12 g/ha
  Results of comparison experiment (16DAA), weed control: 70%
[10]; 24 g/ha
  Results of comparison experiment (16DAA), weed control: 80%
[10]; 48 g/ha
  Results of comparison experiment (16DAA), weed control: 100%
[11]; 30 g/ha, Table 6, post-seedling test conditions
  Results of comparison experiment, Green Setaria viridis (30 g/ha): 100%
[11]; 3 g/ha
  Results of comparison experiment (16DAA), weed control: 20%
[11]; 6 g/ha
  Results of comparison experiment (16DAA), weed control: 40%
[11]; 12 g/ha
  Results of comparison experiment (16DAA), weed control: 80%
[11]; 24 g/ha
  Results of comparison experiment (16DAA), weed control: 100%
[11]; 48 g/ha
  Results of comparison experiment (16DAA), weed control: 100%
[12]; 3 g/ha
  Results of comparison experiment (16DAA), weed control: 0%
[12]; 6 g/ha
  Results of comparison experiment (16DAA), weed control: 20%
[12]; 12 g/ha
  Results of comparison experiment (16DAA), weed control: 50%
[12]; 24 g/ha
  Results of comparison experiment (16DAA), weed control: 70%
[12]; 48 g/ha
  Results of comparison experiment (16DAA), weed control: 80%
[13]; 3 g/ha
  Results of comparison experiment (16DAA), weed control: 30%
[13]; 6 g/ha
  Results of comparison experiment (16DAA), weed control: 40%
[13]; 12 g/ha
  Results of comparison experiment (16DAA), weed control: 50%
[13]; 24 g/ha
  Results of comparison experiment (16DAA), weed control: 70%
[13]; 48 g/ha
  Results of comparison experiment (16DAA), weed control: 100%
[14]; 3 g/ha
  Results of comparison experiment (16DAA), weed control: 40%
[14]; 6 g/ha
  Results of comparison experiment (16DAA), weed control: 40%
[14]; 12 g/ha
  Results of comparison experiment (16DAA), weed control: 60%
[14]; 24 g/ha
  Results of comparison experiment (16DAA), weed control: 80%
[14]; 48 g/ha
  Results of comparison experiment (16DAA), weed control: 100%
[15]; 3 g/ha
  Results of comparison experiment (16DAA), crop damage: 0%
[15]; 6 g/ha
  Results of comparison experiment (16DAA), crop damage: 0%
[15]; 12 g/ha
  Results of comparison experiment (16DAA), crop damage: 0%
[15]; 24 g/ha
  Results of comparison experiment (16DAA), crop damage: 0%
[15]; 48 g/ha
  Results of comparison experiment (16DAA), crop damage: 0%
